“And” between values parts separate entries of the source, which are not always exact repeats. Identical values can stand only once. Like-named read-outs stand apart in the source and are kept apart here.
Assays:
[1] = target: T1, DYRK2 (Homo sapiens, UniProt Q92630); assay: DYRKs kinase activity assay (33P-ATP, DYRKtide substrate): DYRK2; type: biochemical
T1 construct: purchased Reaction Biology Corporation (assay service)
T1 sequence (Q92630 1-601): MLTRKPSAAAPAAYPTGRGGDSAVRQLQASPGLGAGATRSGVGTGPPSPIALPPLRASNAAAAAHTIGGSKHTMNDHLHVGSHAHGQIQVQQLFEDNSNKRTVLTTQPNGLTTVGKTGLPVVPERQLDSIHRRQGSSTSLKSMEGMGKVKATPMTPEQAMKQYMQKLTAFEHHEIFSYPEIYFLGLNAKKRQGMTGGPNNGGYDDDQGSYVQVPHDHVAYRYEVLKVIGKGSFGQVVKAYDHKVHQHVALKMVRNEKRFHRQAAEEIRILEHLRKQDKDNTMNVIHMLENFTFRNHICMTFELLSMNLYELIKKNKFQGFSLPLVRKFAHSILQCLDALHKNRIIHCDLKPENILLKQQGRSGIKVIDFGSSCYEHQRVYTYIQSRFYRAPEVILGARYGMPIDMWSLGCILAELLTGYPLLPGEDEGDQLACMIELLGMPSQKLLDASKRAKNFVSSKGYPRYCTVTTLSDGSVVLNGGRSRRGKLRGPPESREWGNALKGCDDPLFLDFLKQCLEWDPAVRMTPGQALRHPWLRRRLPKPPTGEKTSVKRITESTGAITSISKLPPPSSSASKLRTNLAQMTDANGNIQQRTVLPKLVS

[2] = target: T2, DYRK2 protein (Homo sapiens, UniProt Q92630); assay: Microscale thermophoresis binding assay; conditions: for Fnorm: triplicates
T2 construct: 6xHis (N, cleaved yes); TEV protease cleavage site (N, cleaved yes); made in house; host or cells: E. coli BL21 (DE3)
T2 sequence (Q92630 72-479 isoform Q92630-2): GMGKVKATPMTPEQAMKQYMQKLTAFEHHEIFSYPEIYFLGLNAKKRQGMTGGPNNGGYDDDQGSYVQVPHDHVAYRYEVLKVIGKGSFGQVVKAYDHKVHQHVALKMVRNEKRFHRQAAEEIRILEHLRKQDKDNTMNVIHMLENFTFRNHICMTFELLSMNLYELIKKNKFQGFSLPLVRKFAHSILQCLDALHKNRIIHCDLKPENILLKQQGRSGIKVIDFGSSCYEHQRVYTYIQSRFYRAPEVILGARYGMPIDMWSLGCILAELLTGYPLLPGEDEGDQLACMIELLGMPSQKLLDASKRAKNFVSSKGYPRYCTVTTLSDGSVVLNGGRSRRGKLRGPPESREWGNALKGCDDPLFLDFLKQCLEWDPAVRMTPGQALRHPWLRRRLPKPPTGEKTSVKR

CC(C)N1CCN(Cc2ccc(Nc3ncc(F)c(-c4ccc5ncsc5c4)n3)nc2)CC1 [Compound 12] was tested, and the inhibition at 0.00152416 µM ([1]; 0.00152416 µM, duplicates, read-out: % Inhibition DYRK2) was 3.73%, the inhibition at 0.0137174 µM ([1]; 0.0137174 µM, duplicates, read-out: % Inhibition DYRK2) was 8.64% and the inhibition at 0.0411523 µM ([1]; 0.0411523 µM, duplicates, read-out: % Inhibition DYRK2) was 21.1%. It also gave an inhibition at 0.123457 µM ([1]; 0.123457 µM, duplicates, read-out: % Inhibition DYRK2) of 34.4%, an inhibition at 0.37037 µM ([1]; 0.37037 µM, duplicates, read-out: % Inhibition DYRK2) of 57.9% and an inhibition at 1.11111 µM ([1]; 1.11111 µM, duplicates, read-out: % Inhibition DYRK2) of 76.8%. For the same compound, the inhibition at 3.33333 µM ([1]; 3.33333 µM, duplicates, read-out: % Inhibition DYRK2) was 87.6%, the inhibition at 10 µM ([1]; 10 µM, duplicates, read-out: % Inhibition DYRK2) was 82.5% and the “% Inhibition” value ([1]; DYRK2 kinase, Conc. 0.000508053 µM, duplicate values) was 5.75% and 2.04%. The “% Inhibition” value ([1]; DYRK2 kinase, Conc. 0.00152416 µM, duplicate values) was 4.49%, the inhibition at 0.00152416 µM ([1]; DYRK2 kinase, Conc. 0.00152416 µM, duplicate values, read-out: % Inhibition) was 3.73% and the “% Inhibition” value ([1]; DYRK2 kinase, Conc. 0.00457247 µM, duplicate values) was 3.40% and 7.56%. The “% Inhibition” value ([1]; DYRK2 kinase, Conc. 0.0137174 µM, duplicate values) was 7.85%, the inhibition at 0.0137174 µM ([1]; DYRK2 kinase, Conc. 0.0137174 µM, duplicate values, read-out: % Inhibition) was 8.64% and the “% Inhibition” value ([1]; DYRK2 kinase, Conc. 0.0411523 µM, duplicate values) was 22.26%. The inhibition at 0.0411523 µM ([1]; DYRK2 kinase, Conc. 0.0411523 µM, duplicate values, read-out: % Inhibition) was 21.1%, the “% Inhibition” value ([1]; DYRK2 kinase, Conc. 0.123457 µM, duplicate values) was 33.57% and the inhibition at 0.123457 µM ([1]; DYRK2 kinase, Conc. 0.123457 µM, duplicate values, read-out: % Inhibition) was 34.4%. The “% Inhibition” value ([1]; DYRK2 kinase, Conc. 0.37037 µM, duplicate values) was 58.41%, the inhibition at 0.37037 µM ([1]; DYRK2 kinase, Conc. 0.37037 µM, duplicate values, read-out: % Inhibition) was 57.9% and the “% Inhibition” value ([1]; DYRK2 kinase, Conc. 1.11111 µM, duplicate values) was 75.65%. For the same compound, the inhibition at 1.11111 µM ([1]; DYRK2 kinase, Conc. 1.11111 µM, duplicate values, read-out: % Inhibition) was 76.8%, the “% Inhibition” value ([1]; DYRK2 kinase, Conc. 3.33333 µM, duplicate values) was 88.99% and the inhibition at 3.33333 µM ([1]; DYRK2 kinase, Conc. 3.33333 µM, duplicate values, read-out: % Inhibition) was 87.6%. The “% Inhibition” value ([1]; DYRK2 kinase, Conc. 10 µM, duplicate values) was 86.13%, the inhibition at 10 µM ([1]; DYRK2 kinase, Conc. 10 µM, duplicate values, read-out: % Inhibition) was 82.5% and the IC50 ([1]; Supplementary Table 1, read-out: IC50 (μM), DYRK2 kinase) was 0.263 µM. For the same compound, the IC50 ([1]; read-out: DYRK2 IC50) was 0.263 µM, the Kd [2] was 4210 nM and the Fnorm ([2]; Ligand Concentration 1.52588e-9 M) was 954.38 ‰ and 953.199 ‰ and 953.894 ‰. The Fnorm ([2]; Ligand Concentration 3.05176e-9 M) was 952.707 ‰ and 951.359 ‰ and 952.777 ‰, the Fnorm ([2]; Ligand Concentration 6.10352e-9 M) was 952.691 ‰ and 953.017 ‰ and 952.481 ‰ and the Fnorm ([2]; Ligand Concentration 1.2207e-8 M) was 952.212 ‰ and 953.635 ‰ and 952.43 ‰. For the same compound, the Fnorm ([2]; Ligand Concentration 2.44141e-8 M) was 953.58 ‰ and 951.571 ‰ and 954.168 ‰, the Fnorm ([2]; Ligand Concentration 4.88281e-8 M) was 951.243 ‰ and 951.794 ‰ and 952.294 ‰ and the Fnorm ([2]; Ligand Concentration 9.76563e-8 M) was 951.852 ‰ and 953.231 ‰ and 951.931 ‰. For the same compound, the Fnorm ([2]; Ligand Concentration 1.95313e-7 M) was 949.537 ‰ and 959.016 ‰ and 950.589 ‰, the Fnorm ([2]; Ligand Concentration 3.90625e-7 M) was 952.367 ‰ and 950.104 ‰ and 950.78 ‰ and the Fnorm ([2]; Ligand Concentration 7.8125e-7 M) was 949.243 ‰ and 949.342 ‰ and 952.357 ‰. For the same compound, the Fnorm ([2]; Ligand Concentration 1.5625e-6 M) was 951.973 ‰ and 948.051 ‰ and 949.742 ‰, the Fnorm ([2]; Ligand Concentration 3.125e-6 M) was 946.14 ‰ and 947.629 ‰ and 949.334 ‰ and the Fnorm ([2]; Ligand Concentration 6.25e-6 M) was 948.962 ‰ and 949.021 ‰ and 944.76 ‰. For the same compound, the Fnorm ([2]; Ligand Concentration 1.25e-5 M) was 945.246 ‰ and 944.859 ‰ and 943.424 ‰, the Fnorm ([2]; Ligand Concentration 2.5e-5 M) was 944.179 ‰ and 942.478 ‰ and 945.127 ‰ and the Fnorm ([2]; Ligand Concentration 5e-5 M) was 942.507 ‰ and 940.515 ‰ and 942.733 ‰.
